From patent publication US20110098325A1, “PYRIDINE BENZAMIDES AND PYRAZINE BENZAMIDES USED AS PKD INHIBITORS” (CANCER RESEARCH TECHNOLOGY LIMITED, priority 2006, published 2011)

What follows are compounds tested against T1, Murine PKD1 kinase domain (Mus musculus, UniProt Q62101) (assay: PKD1 (Murine Kinase Domain) Enzyme Activity Assay (IMAP fluorescence polarisation)). Conditions: 10 μM ATP, 60 minutes, room temperature.
T1 construct: hexahistidine (pFastBac HTb leader) (N); made in house; host or cells: Sf9 insect cells, baculovirus (Bac-to-Bac HT, pFastBac HTb)
T1 sequence (Q62101 with tags, fused parts or gaps R683W): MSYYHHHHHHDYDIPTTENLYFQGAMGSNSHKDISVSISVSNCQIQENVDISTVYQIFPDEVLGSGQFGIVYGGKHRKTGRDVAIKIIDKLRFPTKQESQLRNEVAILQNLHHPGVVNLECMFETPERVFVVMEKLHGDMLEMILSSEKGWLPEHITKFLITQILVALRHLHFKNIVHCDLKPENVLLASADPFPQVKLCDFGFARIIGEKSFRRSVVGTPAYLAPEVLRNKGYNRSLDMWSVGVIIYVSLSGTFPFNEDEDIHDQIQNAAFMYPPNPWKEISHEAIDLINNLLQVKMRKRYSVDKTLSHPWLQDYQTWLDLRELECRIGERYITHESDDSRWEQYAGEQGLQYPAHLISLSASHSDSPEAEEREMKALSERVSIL
Type: biochemical
From the text: The DNA sequence corresponding to murine PKD1 (see FIG. 1) was inserted into pFastBAc Htb (Invitrogen, USA) at BamH1 and EcoR1 sites using standard molecular biology techniques.
The PKD1 described above was expressed as a hexahistidine tagged protein construct using a commercially available baculoviral expression system that induces protein production in insect cell culture (Bac-to-Bac® HT Baculovirus Expression System, Invitrogen). Protein was typically expressed by inoculating 1 L of sf9 cells with a genetically modified baculovirus containing the gene for the kinase domain of PKD1. Sf9 cells were obtained from ICR Ltd.
Purification of PKD1 was achieved by standard chromatographic procedures. Capture from crude centrifuged lysed cell supernatant was achieved using metal affinity chromatography (GE Healthcare Life Sciences, HiTrap Chelating chromatography column), and fractions showing PKD1 (as assessed by gel electrophoresis and western blot) were further purified by a single polish purification step performed using a mono Q anion exchange chromatography system (GE Healthcare Life Sciences, HiTrap HP Q column). […] This protocol describes the method for screening compounds as inhibitors of Protein Kinase D activity in a 384 well microplate format fluorescence polarisation IMAP assay performed using the Biomek FX.
Kinase Enzyme: Murine PKD1 kinase domain at ˜100 μg/mL, was purified from baculovirus (as described above), obtained from aliquots stored at −70° C. PKD was prepared with a final concentration of 0.1 μg/mL by diluting 1:300 in Reaction Buffer (30 μL per 9 mL-5 mL per plate with an additional 4 mL dead volume) and vortexing prior to use. It was necessary to check this concentration regularly in case of enzyme degradation.
(also known as MAPKAP K2 substrate) was obtained from Molecular Devices (Product code R7127). It was used at 300 nM by diluting 20 μM stock 1:66 in Kinase/Reaction Buffer (135 μL per 9 mL; 75 μL per 5 mL Reaction Buffer for blank wells requiring <1 mL per place with an additional 4 mL dead volume).
A 1 mM ATP stock in Reaction Buffer was prepared from a 10 mM stock in 20 mM NaOH and stored as aliquots at −70° C. It was used at 40 μM by diluting 1 mM stock 1:25 in Reaction Buffer (240 μL per 6 mL-2 mL per plate with an additional 4 mL dead volume) and vortexing prior to use.
IMAP Reagents: IMAP Binding Reagent (product code R7207) and Binding Buffer (product code R7208) were obtained from Molecular Devices and stored at +4° C. The beads were gently re-suspended before diluting by 1:400 in buffer (Binding Buffer is supplied as a 5× stock and so was diluted with water prior to use) and then vortexing before addition to wells. 16 mL water with 4 mL Binding Buffer and 50 μL Binding Reagent were used per plate (17 mL per plate with an additional 3 mL dead volume).
13 μL Substrate in Reaction Buffer was added to ‘blank’ wells to give 200 nM reaction concentration. […] 2 μL 10% DMSO/water was added to ‘blank’ and ‘control’ wells. 5 μL ATP in Reaction Buffer was added to all wells to give 10 μM reaction concentration. The reaction mixture was then incubated at room temperature for 60 minutes. The incubation period was followed by the addition of 40 μL IMAP Binding Reagent in Binding Buffer to all wells. The reaction was then further incubated at room temperature for […].
Percentage inhibition was calculated based on activity of the test sample minus the average values in the blank wells relative to the average values measured in control wells minus the average values in the blank wells.
IC50 values were calculated from 10 point dose sigmoid ‘dose-response’ curves using Xlfit software (IDBS inc, USA). Data were fitted to a 4 parameter logistic model/sigmoidal dose response:
where: A=fit minimum (locked to 0); B=fit maximum (locked to 100); C=fit midpoint (pre-fit to 1); D=slope at linear portion of curve, hillslope (pre-fit to 0.1)

| IC50 | Compound |
| --- | --- |
| < 1 µM | CN(C)CCNC(=O)c1cccc(-c2cnc(N)c(-c3ccc(F)c(F)c3)c2)c1 [Y-033, 3-[6-Amino-5-(3,4-difluoro-phenyl)-pyridin-3-yl]-N-(2-dimethylamino-ethyl)-benzamide] |
| < 1 µM | CN(C)CCNC(=O)c1cccc(-c2cnc(N)c(-c3cc(Cl)cc(Cl)c3)c2)c1 [Y-037, 3-[6-Amino-5-(3,5-dichloro-phenyl)-pyridin-3-yl]-N-(2-dimethylamino-ethyl)-benzamide] |
| < 1 µM | CN(C)CCNC(=O)c1cccc(-c2cnc(N)c(-c3ccc(F)c(Cl)c3)c2)c1 [Y-039, 3-[6-Amino-5-(3-chloro-4-fluoro-phenyl)-pyridin-3-yl]-N-(2-dimethylamino-ethyl)-benzamide] |
| < 1 µM | CN(C)CCNC(=O)c1cccc(-c2cnc(N)c(-c3cccc(Cl)c3)c2)c1 [Y-040, 3-[6-Amino-5-(3-chloro-phenyl)-pyridin-3-yl]-N-(2-dimethylamino-ethyl)-benzamide] |
| < 1 µM | CN(C)CCNC(=O)c1cccc(-c2cnc(N)c(-c3cccc(C#N)c3)c2)c1 [Y-041, 3-[6-Amino-5-(3-cyano-phenyl)-pyridin-3-yl]-N-(2-dimethylamino-ethyl)-benzamide] |
| 1 to 10 µM | CC(C)Oc1cccc(-c2cc(-c3cccc(C(=O)NCCN(C)C)c3)cnc2N)c1 [Y-046, 3-[6-Amino-5-(3-isopropoxy-phenyl)-pyridin-3-yl]-N-(2-dimethylamino-ethyl)-benzamide] |
| 1 to 10 µM | COCc1cccc(-c2cc(-c3cccc(C(=O)NCCN(C)C)c3)cnc2N)c1 [Y-047, 3-[6-Amino-5-(3-methoxymethyl-phenyl)-pyridin-3-yl]-N-(2-dimethylamino-ethyl)-benzamide] |
| < 1 µM | COc1cccc(-c2cc(-c3cccc(C(=O)NCCN(C)C)c3)cnc2N)c1 [Y-048, 3-[6-Amino-5-(3-methoxy-phenyl)-pyridin-3-yl]-N-(2-dimethylamino-ethyl)-benzamide] |
| < 1 µM | CN(C)CCNC(=O)c1cccc(-c2cnc(N)c(-c3cccc(OC(F)(F)F)c3)c2)c1 [Y-050, 3-[6-Amino-5-(3-trifluoromethoxy-phenyl)-pyridin-3-yl]-N-(2-dimethylamino-ethyl)-benzamide] |
| < 1 µM | CN(C)CCNC(=O)c1cccc(-c2cnc(N)c(-c3ccc(Cl)c(F)c3)c2)c1 [Y-052, 3-[6-Amino-5-(4-chloro-3-fluoro-phenyl)-pyridin-3-yl]-N-(2-dimethylamino-ethyl)-benzamide] |

Continued, compound first:

| Compound | IC50 |
| --- | --- |
| COc1ncc(-c2cc(-c3cccc(C(=O)NCCN(C)C)c3)cnc2N)c(OC)n1 [Y-029, 3-[6-Amino-5-(2,4-dimethoxy-pyrimidin-5-yl)-pyridin-3-yl]-N-(2-dimethylamino-ethyl)-benzamide] | < 1 µM |
| CN(C)CCNC(=O)c1cccc(-c2cnc(N)c(-c3ccccc3OCc3ccccc3)c2)c1 [Y-030, 3-[6-Amino-5-(2-benzyloxy-phenyl)-pyridin-3-yl]-N-(2-dimethylamino-ethyl)-benzamide] | 1 to 10 µM |
| CN(C)CCNC(=O)c1cccc(-c2cnc(N)c(-c3ccc(-c4ccccc4)c(F)c3)c2)c1 [Y-031, 3-[6-Amino-5-(2-fluoro-biphenyl-4-yl)-pyridin-3-yl]-N-(2-dimethylamino-ethyl)-benzamide] | < 1 µM |
| COc1ccc(-c2cc(-c3cccc(C(N)=O)c3)cnc2N)cc1OC [Y-034, 3-[6-Amino-5-(3,4-dimethoxy-phenyl)-pyridin-3-yl]-benzamide] | 1 to 10 µM |
| COc1ccc(-c2cc(-c3cccc(C(=O)NCCN(C)C)c3)cnc2N)cc1OC [Y-035, 3-[6-Amino-5-(3,4-dimethoxy-phenyl)-pyridin-3-yl]-N-(2-dimethylamino-ethyl)-benzamide] | < 1 µM |
| Cc1ccc(-c2cc(-c3cccc(C(=O)NCCN(C)C)c3)cnc2N)cc1C [Y-036, 3-[6-Amino-5-(3,4-dimethyl-phenyl)-pyridin-3-yl]-N-(2-dimethylamino-ethyl)-benzamide] | < 1 µM |
| CN(C)CCNC(=O)c1cccc(-c2cnc(N)c(-c3cccc(OCc4ccccc4)c3)c2)c1 [Y-038, 3-[6-Amino-5-(3-benzyloxy-phenyl)-pyridin-3-yl]-N-(2-dimethylamino-ethyl)-benzamide] | < 1 µM |
| CN(C)CCNC(=O)c1cccc(-c2cnc(N)c(-c3ccc(O)c(F)c3)c2)c1 [Y-042, 3-[6-Amino-5-(3-fluoro-4-hydroxy-phenyl)-pyridin-3-yl]-N-(2-dimethylamino-ethyl)-benzamide] | < 1 µM |
| COc1ccc(-c2cc(-c3cccc(C(=O)NCCN(C)C)c3)cnc2N)cc1F [Y-043, 3-[6-Amino-5-(3-fluoro-4-methoxy-phenyl)-pyridin-3-yl]-N-(2-dimethylamino-ethyl)-benzamide] | < 1 µM |
| Cc1ccc(-c2cc(-c3cccc(C(=O)NCCN(C)C)c3)cnc2N)cc1F [Y-044, 3-[6-Amino-5-(3-fluoro-4-methyl-phenyl)-pyridin-3-yl]-N-(2-dimethylamino-ethyl)-benzamide] | < 1 µM |
| CN(C)CCNC(=O)c1cccc(-c2cnc(N)c(-c3ccc(-c4ccccc4)cc3F)c2)c1 [Y-045, 3-[6-Amino-5-(3-fluoro-biphenyl-4-yl)-pyridin-3-yl]-N-(2-dimethylamino-ethyl)-benzamide] | < 1 µM |
| CN(C)CCNC(=O)c1cccc(-c2cnc(N)c(-c3cccc(Oc4ccccc4)c3)c2)c1 [Y-049, 3-[6-Amino-5-(3-phenoxy-phenyl)-pyridin-3-yl]-N-(2-dimethylamino-ethyl)-benzamide] | < 1 µM |
| CN(C)CCNC(=O)c1cccc(-c2cnc(N)c(-c3ccc(OCc4ccccc4)cc3)c2)c1 [Y-051, 3-[6-Amino-5-(4-benzyloxy-phenyl)-pyridin-3-yl]-N-(2-dimethylamino-ethyl)-benzamide] | < 1 µM |
| CCSc1ccc(-c2cc(-c3cccc(C(=O)NCCN(C)C)c3)cnc2N)cc1 [Y-053, 3-[6-Amino-5-(4-ethylsulfanyl-phenyl)-pyridin-3-yl]-N-(2-dimethylamino-ethyl)-benzamide] | < 1 µM |
| COc1cc(F)ccc1-c1cc(-c2cccc(C(=O)NCCN(C)C)c2)cnc1N [Y-054, 3-[6-Amino-5-(4-fluoro-2-methoxy-phenyl)-pyridin-3-yl]-N-(2-dimethylamino-ethyl)-benzamide] | 1 to 10 µM |
| COc1cc(-c2cc(-c3cccc(C(N)=O)c3)cnc2N)ccc1F [Y-055, 3-[6-Amino-5-(4-fluoro-3-methoxy-phenyl)-pyridin-3-yl]-benzamide] | < 1 µM |
| COc1cc(-c2cc(-c3cccc(C(=O)NCCN(C)C)c3)cnc2N)ccc1F [Y-056, 3-[6-Amino-5-(4-fluoro-3-methoxy-phenyl)-pyridin-3-yl]-N-(2-dimethylamino-ethyl)-benzamide] | < 1 µM |
| CN(C)CCNC(=O)c1cccc(-c2cnc(N)c(-c3ccc(F)c(C(F)(F)F)c3)c2)c1 [Y-057, 3-[6-Amino-5-(4-fluoro-3-trifluoromethyl-phenyl)-pyridin-3-yl]-N-(2-dimethylamino-ethyl)-benzamide] | < 1 µM |
